Results published in the NIST ThermoML archive (doi:10.1016/j.jct.2018.03.013).

Assay: xn = mol fraction of the nth substance listed
Conditions: 100 kPa, Liquid; for speed of sound: Frequency=3 MHz, Linear variable-path acoustic interferometer; for mass density: Pycnometric method

C=C(C)C(=O)OCC [ethyl 2-methylpropenoate] + CC#N
Conditions	mass density [kg/m3]	speed of sound [m/s]
293.15 K, x2 = 0	912.3	1196.8
293.15 K, x2 = 0.0556	909.47	1200.9
293.15 K, x2 = 0.1112	906.38	1205
293.15 K, x2 = 0.1631	903.24	1208.8
293.15 K, x2 = 0.2147	899.86	1212.6
293.15 K, x2 = 0.2795	895.21	1217.4
293.15 K, x2 = 0.3446	890.04	1222.2
293.15 K, x2 = 0.4132	883.98	1227.4
293.15 K, x2 = 0.4819	877.18	1232.8
293.15 K, x2 = 0.5597	868.44	1239.5
293.15 K, x2 = 0.6375	858.38	1246.9
293.15 K, x2 = 0.7251	845.11	1256.4
293.15 K, x2 = 0.8113	829.5	1267.7
293.15 K, x2 = 0.9014	809.62	1282.6
293.15 K, x2 = 0.9542	795.78	1293.4
298.15 K, x2 = 0	907.18	1176.9
298.15 K, x2 = 0.0556	904.36	1181
298.15 K, x2 = 0.1112	901.28	1185.1
298.15 K, x2 = 0.1631	898.14	1188.8
298.15 K, x2 = 0.2147	894.76	1192.5
298.15 K, x2 = 0.2795	890.11	1197.2
298.15 K, x2 = 0.3446	884.94	1201.9
298.15 K, x2 = 0.4132	878.87	1207
298.15 K, x2 = 0.4819	872.05	1212.3
298.15 K, x2 = 0.5597	863.29	1218.8
298.15 K, x2 = 0.6375	853.22	1226
298.15 K, x2 = 0.7251	839.92	1235.4
298.15 K, x2 = 0.8113	824.27	1246.5
298.15 K, x2 = 0.9014	804.36	1261.1
298.15 K, x2 = 0.9542	790.5	1271.8
303.15 K, x2 = 0	902.06	1157.6
303.15 K, x2 = 0.0556	899.25	1161.8
303.15 K, x2 = 0.1112	896.18	1165.9
303.15 K, x2 = 0.1631	893.05	1169.6
303.15 K, x2 = 0.2147	889.66	1173.3
303.15 K, x2 = 0.2795	885.01	1177.9
303.15 K, x2 = 0.3446	879.82	1182.6
303.15 K, x2 = 0.4132	873.74	1187.7
303.15 K, x2 = 0.4819	866.92	1193
303.15 K, x2 = 0.5597	858.14	1199.5
303.15 K, x2 = 0.6375	848.05	1206.7
303.15 K, x2 = 0.7251	834.72	1216.2
303.15 K, x2 = 0.8113	819.05	1227.4
303.15 K, x2 = 0.9014	799.1	1242.2
303.15 K, x2 = 0.9542	785.22	1252.9
308.15 K, x2 = 0	896.94	1139.4
308.15 K, x2 = 0.0556	894.14	1143.6
308.15 K, x2 = 0.1112	891.07	1147.7
308.15 K, x2 = 0.1631	887.95	1151.4
308.15 K, x2 = 0.2147	884.57	1155
308.15 K, x2 = 0.2795	879.91	1159.6
308.15 K, x2 = 0.3446	874.71	1164.3
308.15 K, x2 = 0.4132	868.61	1169.3
308.15 K, x2 = 0.4819	861.78	1174.6
308.15 K, x2 = 0.5597	852.99	1181
308.15 K, x2 = 0.6375	842.87	1188.1
308.15 K, x2 = 0.7251	829.52	1197.5
308.15 K, x2 = 0.8113	813.82	1208.6
308.15 K, x2 = 0.9014	793.83	1223.4
308.15 K, x2 = 0.9542	779.93	1234.1
313.15 K, x2 = 0	891.83	1121.5
313.15 K, x2 = 0.0556	889.04	1125.6
313.15 K, x2 = 0.1112	885.98	1129.8
313.15 K, x2 = 0.1631	882.85	1133.5
313.15 K, x2 = 0.2147	879.47	1137.1
313.15 K, x2 = 0.2795	874.81	1141.7
313.15 K, x2 = 0.3446	869.6	1146.3
313.15 K, x2 = 0.4132	863.49	1151.3
313.15 K, x2 = 0.4819	856.64	1156.5
313.15 K, x2 = 0.5597	847.83	1162.9
313.15 K, x2 = 0.6375	837.7	1169.9
313.15 K, x2 = 0.7251	824.32	1179.2
313.15 K, x2 = 0.8113	808.59	1190.3
313.15 K, x2 = 0.9014	788.57	1205
313.15 K, x2 = 0.9542	774.64	1215.7
318.15 K, x2 = 0	886.71	1104.6
318.15 K, x2 = 0.0556	883.94	1108.7
318.15 K, x2 = 0.1112	880.88	1112.8
318.15 K, x2 = 0.1631	877.75	1116.5
318.15 K, x2 = 0.2147	874.37	1120.1
318.15 K, x2 = 0.2795	869.7	1124.6
318.15 K, x2 = 0.3446	864.49	1129.2
318.15 K, x2 = 0.4132	858.37	1134.1
318.15 K, x2 = 0.4819	851.5	1139.2
318.15 K, x2 = 0.5597	842.68	1145.4
318.15 K, x2 = 0.6375	832.52	1152.3
318.15 K, x2 = 0.7251	819.12	1161.4
318.15 K, x2 = 0.8113	803.35	1172.3
318.15 K, x2 = 0.9014	783.3	1186.7
318.15 K, x2 = 0.9542	769.35	1197.3
